Experimental data as given in US20260109731A1, “NE[…] USE THEREOF” (HUNAN MINGRUI PHARMACEUTICAL CO., LTD., priority 2023, published 2026).

Experiment: Pharmacokinetic analysis of tail vein administration in mice
Details: female, ICR, mouse, 5 mg/kg; for concentration at 5 min / concentration at 1 h / concentration at 8 h: brain; for clearance / half-life: plasma, iv
Procedure: Female ICR mice (body weight: 20 g to 22 g) were purchased from BEIJING HFK BIOSCIENCE CO., LTD.
The animals were sacrificed at blood collection time points (5 min, 1 h and 8 h) for brain tissue collection, and the collected brain tissues were stored at −80° C. for later testing.
100 μL of plasma sample, 10 μL of internal standard solution (100 ng/mL testosterone D-3 solution), and 310 μL of acetonitrile were accurately measured, uniformly mixed by vortexing, and centrifuged (14000 rpm, 4° C.), and a resulting supernatant was taken to obtain the plasma sample.
About 100 mg of brain tissue sample was taken, and accurately weighed, 100 μL of water and 400 μL acetonitrile were accurately added thereto, and a resulting mixture was subjected to homogenization. 100 μL of brain tissue homogenate, 10 μL of internal standard solution (100 ng/mL testosterone D-3 solution), and 310 μL of acetonitrile were accurately measured, uniformly mixed by vortexing, and centrifuged (14000 rpm, 4° C.), and a resulting supernatant was taken to obtain the brain tissue sample.
100 μL of blank plasma sample, 10 μL of mixed standard solution, 10 μL of internal standard solution (100 ng/mL testosterone D-3 solution), and 300 μL of acetonitrile were accurately measured, uniformly mixed by vortexing, and centrifuged (14000 rpm, 4° C.), and a resulting supernatant was taken to obtain the plasma matrix standard solution.
About 100 mg of blank brain tissue sample was taken, and accurately weighed, 100 μL of water and 400 μL acetonitrile were accurately added thereto, and a resulting mixture was subjected to homogenization using a homogenizer. 100 μL of brain tissue homogenate, 10 μL of mixed standard solution, 10 μL of internal standard solution (100 ng/mL testosterone D-3 solution) and 300 μL of acetonitrile were accurately measured, uniformly mixed by vortexing, and centrifuged (14000 rpm, 4° C.), and a resulting supernatant was taken to obtain the Brain tissue matrix standard solution.
The UPLC-MS/MS method with testosterone D-3 as the internal standard was used to perform analysis and determination by the standard curve method.

SMILES	concentration at 5 min (intravenous) [ng/g]	concentration at 1 h (intravenous) [ng/g]	concentration at 8 h (intravenous) [ng/g]	Kp at 5 min (brain/plasma, intravenous)	Kp at 1 h (brain/plasma, intravenous)	Kp at 8 h (brain/plasma, intravenous)	clearance [mL/min/kg]	half-life [min]
CC(=O)[C@H]1CC[C@H]2[C@@H]3CC[C@H]4C[C@H](O[N+](=O)[O-])CC[C@]4(C)[C@H]3CC[C@]12C [Compound 1]	1140	652	31	0.65	7.58	2.27	197	50.4
CC(=O)[C@H]1CC[C@H]2[C@@H]3CC[C@H]4C[C@H](O)CC[C@]4(C)[C@H]3CC[C@]12C [Allopregnanolone, 5α-pregnan-3α-ol-20-one, reference compound]	1070	47.3	14.4	1.28	2.71	–	218	40.8
